Laboratory results reported in patent US20190374627A1, “TARGET PEPTIDES FOR CANCER THERAPY AND DIAGNOSTICS” (priority 2016, published 2019).
Square brackets hold non-standard residues; d marks the D form. Ends that are not written are not given here. pT = C[C@@H](OP(=O)(O)O)[C@H](N)C(=O)O; pS = N[C@@H](COP(=O)(O)O)C(=O)O

How the values were obtained:
[1] = system: unexpanded lymphocyte cultures (CD8^+ T cells); assay: ICS for MHC-I-pP reactivity of lymphocyte cultures without expansion (Table 23, No Expansion); settings: HH6
[2] = system: expanded TIL / IHL cultures; assay: ICS for MHC-I-pP reactivity of liver-derived lymphocyte cultures after unspecific rapid expansion protocol (REP); assay type: cell-based, human
[3] = system: expanded lymphocyte cultures from deceased donor livers, cirrhotic livers and HCC; assay: ICS for MHC-I-pP reactivity of liver-derived lymphocyte cultures after phosphopeptide-specific expansion; assay type: cell-based, human; settings: for ppCTL response, HCC Distal HCC 1: HCC 1 Distal; for ppCTL response, HCC Tumor HCC 1: HCC 1 Tumor; for ppCTL response, HCC Distal HCC 4: HCC 4 Distal
[4] = system: CD8^+ T cells (PBMCs); assay: Intracellular cytokine staining (ICS) of PBMCs after 7 days of stimulation with MHC-I-pP (healthy donors, HH patients); assay type: cell-based, human; settings: for Reactive CD8^+ T cell population, HH2: HH patient HH2; for Reactive CD8^+ T cell population, HH3: HH patient HH3; for Reactive CD8^+ T cell population, HH8: HH patient HH8; for Reactive CD8^+ T cell population, HH11: HH patient HH11
Description: From this, CD8^+ T cell responses against newly identified MHC class I-associated phosphopeptides in healthy individuals and patients with chronic liver disease were investigated. Twenty-one of the newly identified HCC-associated HLA-A*0201-restricted phosphopeptides were selected (see Table 17) for further immunological testing in HLA-A*0201 positive patients. MHC-I-pP-specific cytotoxic CD8^+ T cell responses (ppCTL) were assessed using intracellular cytokine staining (ICS) and several cytokines and surface markers were assessed in parallel. After 7 days of stimulation with the respective MHC-I-pP and no other cytokines, CD3- and CD8-expressing T cells were stained for at least two different cytokines (IFN-γ, TNF-α) and when required CD107a expression as a marker for their cytotoxic potential.
First, peripheral blood mononuclear cells (PBMCs) from healthy donors and patients with hereditary hemochromatosis (HH) were analyzed. HH is a chronic liver disease characterized by excessive intestinal absorption of dietary iron resulting in a pathological deposition of iron in the liver. PBMCs or lymphocytes from liver tissue were extracted and specifically stimulated with (phospho-) peptides for 7 days before intracellular cytokine staining (ICS). Doublets and dead cells, using a fixable viability dye, were excluded. Lymphocytes were gated on CD3^+ and CD8^+ double positive cells and were analysed for expression of IFNγ, TNFα-, and CD107a.

[5] = pP-specifically expanded culture

Substance	Reactive CD8^+ T cells, No Expansion, HH6 [1]	Reactive CD8^+ T cells, pP-specific Expansion, Do2 [3]	Reactive CD8^+ T cells, pP-specific Expansion, Do4 [3]	Reactive CD8^+ T cells, pP-specific Expansion, HH6 [3]	ppCTL response, Deceased Donor Liver Do 2 [3, 5]	ppCTL response, Deceased Donor Liver Do 3 [3, 5]	ppCTL response, Deceased Donor Liver Do 4 [3, 5]	ppCTL response, Deceased Donor Liver Do 6 [3, 5]	ppCTL response, End-stage Liver Cirrhosis IHL 11 [3, 5]	ppCTL response, End-stage Liver Cirrhosis IHL 13 [3, 5]	ppCTL response, HCC Distal HCC 1 [3, 5]	ppCTL response, HCC Tumor HCC 1 [3, 5]	ppCTL response, HCC Distal HCC 4 [3, 5]	Reactive CD8^+ T cell population, HH2 [4]	Reactive CD8^+ T cell population, HH3 [4]	Reactive CD8^+ T cell population, HH8 [4]	Reactive CD8^+ T cell population, HH11 [4]	also measured
ALDsGASLLHL: RIPK4 phosphopeptide, HLA-A*0201 (ALD[pS]GASLLHL; listed as Homo sapiens)	2 (2.5-5.0% reactive CD8^-+ T cells)	0 (<0.25% reactive CD8^-+ T cells)	0 (<0.25% reactive CD8^-+ T cells)	2 (2.5-5.0% reactive CD8^-+ T cells)	0 (<0.25% reactive CD8-+ T cells)	0 (<0.25% reactive CD8-+ T cells)	0 (<0.25% reactive CD8-+ T cells)	0 (<0.25% reactive CD8-+ T cells)	0 (<0.25% reactive CD8-+ T cells)	0 (<0.25% reactive CD8-+ T cells)	0 (<0.25% reactive CD8-+ T cells)	0 (<0.25% reactive CD8-+ T cells)	0 (<0.25% reactive CD8-+ T cells)	0 (<0.25% reactive CD8^-+ T cells)	0 (<0.25% reactive CD8^-+ T cells)	0 (<0.25% reactive CD8^-+ T cells)	1 (0.25-2.5% reactive CD8^-+ T cells)	Reactive CD8^+ T cells, Non-specific Expansion, Do2 ([2]; Do2): 0 (<0.25% reactive CD8^-+ T cells); Reactive CD8^+ T cells, Non-specific Expansion, Do4 ([2]; Do4): 0 (<0.25% reactive CD8^-+ T cells); Reactive CD8^+ T cells, Non-specific Expansion, HH6 ([2]; HH6): 0 (<0.25% reactive CD8^-+ T cells); ppCTL response, End-stage Liver Cirrhosis IHL 12 ([3]; pP-specifically expanded culture, End-stage Liver Cirrhosis IHL 12): 0 (<0.25% reactive CD8-+ T cells); ppCTL response, End-stage Liver Cirrhosis IHL 15 ([3]; pP-specifically expanded culture, End-stage Liver Cirrhosis IHL 15): 3 (5-7.5% reactive CD8-+ T cells); ppCTL response, HCC Distal HCC 9 ([3]; pP-specifically expanded culture, HCC 9 Distal): 0 (<0.25% reactive CD8-+ T cells); ppCTL response, HCC Tumor HCC 9 ([3]; pP-specifically expanded culture, HCC 9 Tumor): 0 (<0.25% reactive CD8-+ T cells); ppCTL response, HCC Distal HCC 12 ([3]; pP-specifically expanded culture, HCC 12 Distal): 0 (<0.25% reactive CD8-+ T cells); Reactive CD8^+ T cell population, HH6 ([4]; HH patient HH6): 0 (<0.25% reactive CD8^-+ T cells); Reactive CD8^+ T cell population, HD1 ([4]; Healthy donor HD1): 0 (<0.25% reactive CD8^-+ T cells); Reactive CD8^+ T cell population, HD4 ([4]; Healthy donor HD4): 0 (<0.25% reactive CD8^-+ T cells); Reactive CD8^+ T cell population, HD5 ([4]; Healthy donor HD5): 0 (<0.25% reactive CD8^-+ T cells)
KLFPDtPLAL: ILF3 phosphopeptide, HLA-A*0201 (KLFPD[pT]PLAL; listed as Homo sapiens)	0 (<0.25% reactive CD8^-+ T cells)	0 (<0.25% reactive CD8^-+ T cells)	0 (<0.25% reactive CD8^-+ T cells)	0 (<0.25% reactive CD8^-+ T cells)	0 (<0.25% reactive CD8-+ T cells)	0 (<0.25% reactive CD8-+ T cells)	0 (<0.25% reactive CD8-+ T cells)	0 (<0.25% reactive CD8-+ T cells)	0 (<0.25% reactive CD8-+ T cells)	0 (<0.25% reactive CD8-+ T cells)	0 (<0.25% reactive CD8-+ T cells)	0 (<0.25% reactive CD8-+ T cells)	0 (<0.25% reactive CD8-+ T cells)	0 (<0.25% reactive CD8^-+ T cells)	0 (<0.25% reactive CD8^-+ T cells)	0 (<0.25% reactive CD8^-+ T cells)	0 (<0.25% reactive CD8^-+ T cells)	
RLFsKELRC: TAF13 phosphopeptide, HLA-A*0201 (RLF[pS]KELRC; listed as Homo sapiens)	0 (<0.25% reactive CD8^-+ T cells)	0 (<0.25% reactive CD8^-+ T cells)	0 (<0.25% reactive CD8^-+ T cells)	0 (<0.25% reactive CD8^-+ T cells)	1 (0.25-2.5% reactive CD8-+ T cells)	0 (<0.25% reactive CD8-+ T cells)	0 (<0.25% reactive CD8-+ T cells)	0 (<0.25% reactive CD8-+ T cells)	0 (<0.25% reactive CD8-+ T cells)	0 (<0.25% reactive CD8-+ T cells)	0 (<0.25% reactive CD8-+ T cells)	0 (<0.25% reactive CD8-+ T cells)	0 (<0.25% reactive CD8-+ T cells)	2 (2.5-5.0% reactive CD8^-+ T cells)	0 (<0.25% reactive CD8^-+ T cells)	0 (<0.25% reactive CD8^-+ T cells)		
RQAsIELPSMAV: LSP1 phosphopeptide, HLA-A*0201 (RQA[pS]IELPSMAV; listed as Homo sapiens)	1 (0.25-2.5% reactive CD8^-+ T cells)	0 (<0.25% reactive CD8^-+ T cells)	0 (<0.25% reactive CD8^-+ T cells)	0 (<0.25% reactive CD8^-+ T cells)	0 (<0.25% reactive CD8-+ T cells)	0 (<0.25% reactive CD8-+ T cells)	0 (<0.25% reactive CD8-+ T cells)	1 (0.25-2.5% reactive CD8-+ T cells)	0 (<0.25% reactive CD8-+ T cells)	0 (<0.25% reactive CD8-+ T cells)	0 (<0.25% reactive CD8-+ T cells)	0 (<0.25% reactive CD8-+ T cells)	0 (<0.25% reactive CD8-+ T cells)	0 (<0.25% reactive CD8^-+ T cells)	0 (<0.25% reactive CD8^-+ T cells)	0 (<0.25% reactive CD8^-+ T cells)	0 (<0.25% reactive CD8^-+ T cells)	
RQDsTPGKVFL: NR2C1 phosphopeptide, HLA-A*0201 (RQD[pS]TPGKVFL; listed as Homo sapiens)	2 (2.5-5.0% reactive CD8^-+ T cells)	0 (<0.25% reactive CD8^-+ T cells)	0 (<0.25% reactive CD8^-+ T cells)	1 (0.25-2.5% reactive CD8^-+ T cells)	1 (0.25-2.5% reactive CD8-+ T cells)	0 (<0.25% reactive CD8-+ T cells)	0 (<0.25% reactive CD8-+ T cells)	0 (<0.25% reactive CD8-+ T cells)	0 (<0.25% reactive CD8-+ T cells)	0 (<0.25% reactive CD8-+ T cells)	0 (<0.25% reactive CD8-+ T cells)	0 (<0.25% reactive CD8-+ T cells)	0 (<0.25% reactive CD8-+ T cells)	0 (<0.25% reactive CD8^-+ T cells)	0 (<0.25% reactive CD8^-+ T cells)	0 (<0.25% reactive CD8^-+ T cells)	0 (<0.25% reactive CD8^-+ T cells)	
RQLsSGVSEI: HSPB1 phosphopeptide, HLA-A*0201 (RQL[pS]SGVSEI; listed as Homo sapiens)	2 (2.5-5.0% reactive CD8^-+ T cells)	0 (<0.25% reactive CD8^-+ T cells)	0 (<0.25% reactive CD8^-+ T cells)	0 (<0.25% reactive CD8^-+ T cells)	0 (<0.25% reactive CD8-+ T cells)	0 (<0.25% reactive CD8-+ T cells)	0 (<0.25% reactive CD8-+ T cells)	0 (<0.25% reactive CD8-+ T cells)	0 (<0.25% reactive CD8-+ T cells)	0 (<0.25% reactive CD8-+ T cells)	0 (<0.25% reactive CD8-+ T cells)	0 (<0.25% reactive CD8-+ T cells)	0 (<0.25% reactive CD8-+ T cells)	0 (<0.25% reactive CD8^-+ T cells)	0 (<0.25% reactive CD8^-+ T cells)	0 (<0.25% reactive CD8^-+ T cells)	0 (<0.25% reactive CD8^-+ T cells)	
